Reference: article PMC7646544, “Scaffold hopping and optimisation of 3’,4’-dihydroxyphenyl- containing thienopyrimidinones: synthesis of quinazolinone derivatives as novel allosteric inhibitors of HIV-1 reverse transcriptase-associated ribonuclease H” (Journal of Enzyme Inhibition and Medicinal Chemistry, 2020)
Read-outs that look alike come from different tables or passages of the source.

Tests used:
[1] = target: T1, p66/p51C280A mutant HIV-1 RNase H (Human immunodeficiency virus type 1 group M subtype B, UniProt P04585, C867A); design: made in house; method as in PMID 24261890; settings: p66/p51 C280A mutant RT; cited from earlier work
[2] = target: T2, wt HIV-1 RT-associated RNase H (Human immunodeficiency virus type 1 group M subtype B, UniProt P04585); settings: wild type RT, cited from earlier work
T2 construct: dynamics at the p66/p51 HIV-1 RT-RNase H dimer interface; made in house

[3] = target: T3, HIV-1 IN in the presence of LEDGF/p75 (Human immunodeficiency virus type 1 group M subtype B, UniProt P04585); assay: HTRF IN LEDGF/p75-dependent assay; format: biochemical
T3 construct: made in house
Experimental: The IN LEDGF/p75-dependent assay measures inhibition of IN activity in the presence of LEDGF/p75 protein[35–37]. Briefly, 50 nM IN was pre-incubated with increasing concentration of compounds for 1 h at room temperature in reaction buffer containing 20 mM HEPES pH 7.5, 1 mM DTT, 1% Glycerol, 20 mM MgCl2, 0.05% Brij-35 and 0.1 mg/ml BSA. To this mixture, 9 nM DNA donor substrate (5′-[…]-Biotin-3′ annealed with 5′-[…]-Biotin3’) and 50 nM DNA acceptor substrate (5′-Cy5-[…]-3′ annealed with 5′-Cy5- […]-3′) and 50 nM LEDGF/p75 were added and incubated at 37 °C for 90 min.

HIV-1 RT-associated RDDP = target: T4, HIV-1 RT-associated RDDP (Human immunodeficiency virus type 1 group M subtype B, UniProt P04585); assay: HIV-1 RNA-dependent DNA polymerase activity determination; format: biochemical; settings: wt RT, poly(A)-oligo(dT)
T4 construct: dynamics at the p66/p51 HIV-1 RT-RNase H dimer interface; made in house
Experimental: HIV-1 RT-associated RDDP activity was measured as described[17]^,[38]. Briefly, in 25 μL volume containing 60 mM Tris-HCl pH 8.1, 8 mM MgCl2, 60 mM KCl, 13 mM DTT, poly(A)-oligo(dT), 100 μM dTTP, and 6 ng wt RT. After enzyme addition, the reaction mixture was incubated for 30 min at 37 °C and stopped by addition of EDTA. […] All assays were performed in triplicate.

[4] = tested on: HIV-1RF isolate in CEM-SS cells; assay: Antiviral activity, XTT-based cell viability assay; settings: for selectivity index (SI): CC50/EC50, CEM-SS cells; for EC50: Human immunodeficiency virus 1, HIV-1RF, CEM-SS cells, XTT
Experimental: (§1) Antiviral activity of selected thienopyrimidinones was determined via the 2,3-bis[2-methoxy-4-nitro-5-sulfophenyl]-5-[(phenylamino)carbonyl]-2H tetrazolium hydroxide (XTT)-based cell viability assay of Weislow et al.[45], using the HIV-1RF isolate and human T-cell line CEM-SS.

[5] = target: T1, p66/p51C280A mutant HIV-1 RNase H; assay: RNase H inhibitor analysis, p66/p51 C280A mutant RT
Experimental: IC50 values were determined as previously reported[31] using an 18-nt 3′-fluorescein-labeled RNA annealed to a complementary 18-nt 5′-dabcyl-labeled DNA. To a 96-well plate was added 1 μL of each inhibitor (in DMSO), followed by 10 μL of the appropriate RT (15−80 ng/mL) in reaction buffer. […] Wells containing only DMSO was used as negative control. […] IC50 values were determined using Prism5 (GraphPad Software, San Diego, CA). All assays were performed in triplicate.

[6] = target: T2, wt HIV-1 RT-associated RNase H; assay: RNase H inhibitor analysis, wild type RT (fluorescent RNA/DNA hybrid); format: biochemical; settings: for IC50: wild type RT
Experimental: All assays were performed in triplicate.

[7] = Cytotoxicity in XTT-based cell viability assay; settings: human, CEM-SS T cells
Experimental: as §1

[8] = target: T5, HIV-1 RT-associated RNase H (Human immunodeficiency virus type 1 group M subtype B, UniProt P04585); assay: Yonetani-Theorell analysis on RNase H activity; format: biochemical; settings: combination of compound 11 and compound 24
T5 construct: dynamics at the p66/p51 HIV-1 RT-RNase H dimer interface; made in house
Experimental: Yonetani–Theorell analysis[43] was performed as reported. Briefly, HIV RT-associated RNase H activity was measured in 100 µL reaction volume containing 50 mM Tris–HCl buffer pH 7.8, 6 mM MgCl2, 1 mM dithiothreitol (DTT), 80 mM KCl, 0.25 µM hybrid RNA/DNA 5′-[…]-Fluorescin-3′ (HPLC, dry, QC: Mass Check) (available from Metabion) 5′-Dabcyl-[…]-3′(HPLC, dry, QC: Mass Check), and different amount of enzymes according to a linear range of dose-response curve: 20 ng of WT RT, and increasing concentrations of inhibitor (diluted) in water and incubated for 1 h at 37 °C, at 200 rpm. Products were measured with a multilabel counter plate reader Victor 3 (Perkin Elmer model 1420-051) equipped with filters for 490/528 nm (excitation/emission wavelength). A calibration curve for the fluorescein signal was generated in parallel, calculating pmols of product generated by the reaction. The reciprocal of the reaction product was plotted vs. the compound concentration a different condition using the Sigma-Plot software.

SMILES	IC50 [3]	IC50 (HIV-1 RT-associated RDDP)	IC50 [5]	IC50 [6]	other results
Cc1sc2nc(-c3ccc(O)c(O)c3)[nH]c(=O)c2c1C [Compound 1, 2-(3,4-dihydroxyphenyl)-5,6-dimethylthieno[2,3-d]pyrimidin-4(3H)-one, reference compound]	–	–	–	–	IC50 [1]: 320 nM
Cc1ccc2nc(-c3ccc(O)c(O)c3)[nH]c(=O)c2c1 [Compound 2, 2–(3,4-dihydroxyphenyl)-6-methylquinazolin-4(3H)-one]	4.3 ± 1.5 µM	> 100 µM	–	–	IC50 ([2]; read-out: IC50 WT RNase H): 0.41 ± 0.01 µM; IC50 [1]: 370 ± 10 nM
Cc1ccc2c(=O)[nH]c(-c3ccc(O)c(O)c3)nc2c1 [Compound 3, 2–(3,4-dihydroxyphenyl)-7-methylquinazolin-4(3H)-one]	2.35 ± 0.44 µM	60 ± 9 µM	230 ± 20 nM	0.5 ± 0.02 µM	selectivity index (SI) [4]: 2; EC50 [4]: 12 µM; CC50 [7]: 25 µM
COc1ccc2nc(-c3ccc(O)c(O)c3)[nH]c(=O)c2c1 [Compound 4, 2–(3,4-dihydroxyphenyl)-6-methoxyquinazolin-4(3H)-one]	8.5 ± 0.3 µM	57 ± 3 µM	410 ± 10 nM	0.57 ± 0.02 µM	–
COc1cc2nc(-c3ccc(O)c(O)c3)[nH]c(=O)c2cc1OC [Compound 5, 2–(3,4-dihydroxyphenyl)-6,7-dimethoxyquinazolin-4(3H)-one]	6.5 ± 2.5 µM	> 100 µM	330 ± 3 nM	0.73 ± 0.02 µM	–
O=c1[nH]c(-c2ccc(O)c(O)c2)nc2ccc(-c3ccccc3)cc12 [Compound 6, 2–(3,4-dihydroxyphenyl)-6-phenylquinazolin-4(3H)-one]	89 ± 10 µM	63 ± 11 µM	290 ± 6 nM	0.37 ± 0.01 µM	–
O=c1[nH]c(-c2ccc(O)c(O)c2)nc2cc3ccccc3cc12 [Compound 7, 2–(3,4-dihydroxyphenyl)benzo[g]quinazolin-4(3H)-one]	31.5 ± 6.5 µM	23.4 ± 0.5 µM	510 ± 50 nM	1.1 ± 0.04 µM	–
O=c1[nH]c(-c2ccc(O)c(O)c2)nc2ccc(I)cc12 [Compound 8, 2–(3,4-dihydroxyphenyl)-6-iodoquinazolin-4(3H)-one]	3.4 ± 0.83 µM	26.7 ± 2.2 µM	120 ± 1 nM	0.15 ± 0.01 µM	selectivity index (SI) [4]: 2; EC50 [4]: 8.3 µM; CC50 [7]: 17 µM
O=c1[nH]c(-c2ccc(O)c(O)c2)nc2ccc(Br)cc12 [Compound 9, 2–(3,4-dihydroxyphenyl)-6-bromoquinazolin-4(3H)-one]	7 ± 2 µM	46 ± 3 µM	400 ± 10 nM	0.45 ± 0.008 µM	–
O=c1[nH]c(-c2ccc(O)c(O)c2)nc2ccc(Cl)cc12 [Compound 10, 2–(3,4-dihydroxyphenyl)-6-chloroquinazolin-4(3H)-one]	3.4 ± 0.6 µM	30.5 ± 0.4 µM	200 ± 10 nM	0.31 ± 0.01 µM	selectivity index (SI) [4]: 4; EC50 [4]: 5.4 µM; CC50 [7]: 22 µM
O=c1[nH]c(-c2ccc(O)c(O)c2)nc2cc(Cl)ccc12 [Compound 11, 2–(3,4-dihydroxyphenyl)-7-chloroquinazolin-4(3H)-one]	7.2 ± 0.7 µM	> 100 µM	660 ± 50 nM	0.43 ± 0.01 µM	selectivity index (SI) [4]: 3; EC50 [4]: 1.8 µM; CC50 [7]: 6 µM; interaction constant α [8]: greater than 1; simultaneous inhibition of RNase H (Yonetani-Theorell) [8]: not kinetically mutually exclusive
O=c1[nH]c(-c2ccc(O)c(O)c2)nc2ccc(F)cc12 [Compound 12, 2–(3,4-dihydroxyphenyl)-6-fluoroquinazolin-4(3H)-one]	6.61 ± 0.93 µM	> 100 µM	840 ± 30 nM	0.52 ± 0.06 µM	–
O=c1[nH]c(-c2ccc(O)c(O)c2)nc2ccc([N+](=O)[O-])cc12 [Compound 13, 2–(3,4-dihydroxyphenyl)-6-nitroquinazolin-4(3H)-one]	23.2 ± 0.8 µM	99 ± 1 µM	170 ± 4 nM	0.31 ± 0.01 µM	–
O=C1NC(c2ccc(O)c(O)c2)Nc2ccc(Cl)cc21 (stereo not shown) [Compound 14, 6-chloro-2–(3,4-dihydroxyphenyl)-2,3-dihydroquinazolin-4(1H)-one]	> 100 µM	> 100 µM	400 ± 30 nM	0.56 ± 0.25 µM	–
O=c1[nH]c(-c2ccc(O)c(O)c2)nc2c1oc1ccccc12 [Compound 15, 2–(3,4-dihydroxyphenyl)benzofuro[3,2-d]pyrimidin-4(3H)-one]	5.35 ± 0.35 µM	25.3 ± 6.3 µM	390 ± 10 nM	0.64 ± 0.03 µM	–
O=c1[nH]c(-c2ccc(O)c(O)c2)nc2ncccc12 [Compound 16, 2–(3,4-dihydroxyphenyl)pyrido[2,3-d]pyrimidin-4(3H)-one]	0.69 ± 0.19 µM	38 ± 4 µM	2000 ± 100 nM	2.4 ± 1.6 µM	–
O=c1[nH]c(-c2ccc(O)c(O)c2)nc2ccccc12 [Compound 17, 2–(3,4-dihydroxyphenyl)quinazolin-4(3H)-one]	1.44 ± 0.4 µM	70 ± 1 µM	–	–	IC50 ([2]; read-out: IC50 (µM) WT RNase H): 3.46 ± 0.47 µM; fold less potent HIV-1 RNase H inhibitor ([6]; compared with decorated quinazolinone 2): 8 fold
O=C(O)c1ccc(-c2nc3ccccc3c(=O)[nH]2)cc1O [Compound 18, 2-hydroxy-4-(4-oxo-3,4-dihydroquinazolin-2-yl)benzoic acid]	–	–	–	13.6 ± 0.3 µM	–
Nc1ccc(-c2nc3ccccc3c(=O)[nH]2)cc1O [Compound 19, 2-(4-amino-3-hydroxyphenyl)quinazolin-4(3H)-one]	–	–	–	> 50 µM	–
Nc1ccc(-c2nc3ccccc3c(=O)[nH]2)cc1N [Compound 20, 2–(3,4-diaminophenyl)quinazolin-4(3H)-one]	–	–	–	> 50 µM	–
O=c1[nH]c(-c2ccc([N+](=O)[O-])c(O)c2)nc2ccccc12 [Compound 21, 2–(3-hydroxy-4-nitrophenyl)quinazolin-4(3H)-one]	–	–	–	> 50 µM	–
Oc1ccc(-c2ccc3ccccc3n2)cc1O [Compound 22, 4-(quinolin-2-yl)benzene-1,2-diol]	–	–	610 ± 220 nM	2.9 ± 0.89 µM	fold more potent on C280A mutant RT RNase H than wt RT ([5]; C280A vs wt): 4 fold
Oc1ccc(-c2ccc3ccccc3c2)cc1O [Compound 23, 4-(naphthalen-2-yl)benzene-1,2-diol]	–	–	1200 ± 40 nM	0.71 ± 0.03 µM	selectivity index (SI) [4]: 2; EC50 [4]: 14 µM; fold more potent than the reported compound 17 ([6]; wt RT RNase H): 5 fold; CC50 [7]: 26 µM
O=c1[nH]c(-c2ccc(O)c(O)c2)nc2sc3c(c12)CCCCC3 [Compound 24, 2–(3,4-dihydroxyphenyl)-3,5,6,7,8,9-hexahydro-4H-cyclohepta[4,5]thieno[2,3-d]pyrimidin-4-one, reference compound]	–	–	–	–	interaction constant α [8]: greater than 1; simultaneous inhibition of RNase H (Yonetani-Theorell) [8]: not kinetically mutually exclusive
